Data published in article PMC8041433 (Environmental Health Perspectives, 2021).
Where “and” joins values, the source holds several entries; their conditions need not be identical. Equal values may be shown once. Read-outs that look alike come from different tables or passages of the source.

Assays:
[1] = molecular target: AChE in neural stem cell spheroids (Homo sapiens, UniProt P22303); assay: cell-based
[2] = molecular target: AChE in SH-SY5Y cells (Homo sapiens, UniProt P22303); assay: cell-based
[3] = molecular target: T1, recombinant human AChE (Homo sapiens, UniProt P22303); assay: biochemical; type: biochemical; conditions: for AC50: AC50 (uM)
[4] = molecular target: T1, recombinant human AChE; assay: biochemical
[5] = molecular target: T1, recombinant human AChE
[6] = molecular target: T1, recombinant human AChE; assay: biochemical; remark: listed apart in the source
[7] = molecular target: T1, recombinant human AChE; assay: biochemical; remark: listed apart in the source
[8] = molecular target: AChE in neural stem cells (Homo sapiens, UniProt P22303); assay: cell-based
[9] = molecular target: AChE in SH-SY5Y spheroids (Homo sapiens, UniProt P22303); assay: cell-based; conditions: potency (IC50)
[10] = potency (IC50), Neural stem cell spheroid (24 h)
[11] = potency (IC50), Neural stem cell spheroid (48 h)
[12] = potency (IC50), SH-SY5Y cells monolayer
[13] = potency (IC50), Enzyme with microsomes
For IR or R in this document: key: Reversible (R); Irreversible (IR); ND, not detected in enzyme-based AChE inhibition assay from current study.

T1 sequence (P22303 32-614): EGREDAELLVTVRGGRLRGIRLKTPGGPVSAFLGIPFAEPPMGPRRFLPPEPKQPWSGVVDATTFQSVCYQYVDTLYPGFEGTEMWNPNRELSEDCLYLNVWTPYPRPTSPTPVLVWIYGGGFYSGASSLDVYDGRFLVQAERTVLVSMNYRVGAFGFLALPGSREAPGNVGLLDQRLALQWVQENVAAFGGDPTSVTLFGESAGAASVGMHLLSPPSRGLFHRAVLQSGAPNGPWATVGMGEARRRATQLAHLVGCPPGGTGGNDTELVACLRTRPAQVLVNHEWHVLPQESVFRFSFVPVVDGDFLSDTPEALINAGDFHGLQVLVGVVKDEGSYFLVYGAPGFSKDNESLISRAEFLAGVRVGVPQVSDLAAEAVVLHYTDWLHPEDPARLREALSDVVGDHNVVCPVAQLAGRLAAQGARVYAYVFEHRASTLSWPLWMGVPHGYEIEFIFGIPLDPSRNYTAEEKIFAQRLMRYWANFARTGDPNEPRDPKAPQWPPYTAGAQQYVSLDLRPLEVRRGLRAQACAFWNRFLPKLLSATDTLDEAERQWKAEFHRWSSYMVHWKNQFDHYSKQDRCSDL
AChE in neural stem cell spheroids, sequence (P22303 32-614): as above
AChE in SH-SY5Y spheroids, sequence (P22303 32-614): as above
AChE in neural stem cells, sequence (P22303 32-614): as above
AChE in SH-SY5Y cells, sequence (P22303 32-614): as above

| Structure (SMILES) | IC50 [1, 10] | IC50 [1, 11] | CC-v2 (curve classes) [2] | IC50 ([2]; IC50 (uM)) | IC50 [2, 12] | IR or R [3] | IC50 [4] | CC-v2 (curve classes) [5] | Efficacy [5] | CC-v2 (curve classes) [6] | Efficacy [6] | IC50 ([6]; potency (IC50), Enzyme) | IC50 [7, 13] | IC50 [8] | IC50 ([9]; SH-SY5Y spheroids (24 h)) | IC50 ([9]; SH-SY5Y spheroids (48 h)) | AC50 [3] | IC50 ([6]; IC50 (uM)) | further results |
| --- | --- | --- | --- | --- | --- | --- | --- | --- | --- | --- | --- | --- | --- | --- | --- | --- | --- | --- | --- |
| Cl.Clc1cc(Cl)c2c(c1)N=C1CCCCCN1C2 [PharmaGSID_47259] | 13.5 ± 9.25 µM | 22 µM | -1.1 | 0.776 µM and 0.692 µM | 0.87 ± 0.18 µM | R | 1.54 ± 0.18 µM | -1.1 | -90.391 | -1.1 | -94.138 | 0.54 ± 0.06 µM | 1.79 ± 0.22 µM | 10.7 ± 2.66 µM | 2.24 ± 2.76 µM | 0.85 ± 0.21 µM | – | – | AC50 ([3]; activity_5): 1.09 µM and 0.544 µM; AC50 ([3]; activity_10): 0.153 µM and 1.22 µM and 1.09 µM; AC50 ([3]; activity_60): 0.968 µM and 0.172 µM and 1.22 µM |
| CCN1CCCC1CNC(=O)c1cc(S(=O)(=O)CC)c(N)cc1OC (stereo not shown) [Amisulpride, reference compound] | – | 12.1 µM | – | 21.9 µM and 34.7 µM and 38.9 µM | 30.7 µM | R | 24.3 µM | -2.4 | -30.734 | -2.2 | -62.971 | 14.3 µM | 21.8 µM | 17.2 µM | 11.1 µM | 28.6 µM | 17.2 µM (2×) and 6.85 µM and 19.3 µM (2×) and 3.43 µM and 15.3 µM and 21.7 µM | 15.5 µM | potency (IC50), Neural stem cell spheroid (24 h) [1]: Inactive; IC50 ([7]; IC50 (uM)): 38.9 µM |
| CCOP(=S)(OCC)Oc1nc(Cl)c(Cl)cc1Cl [Chlorpyrifos, reference compound] | – | 2.58 µM | -2.1 | 35.6 µM and 35.7 µM and 44.9 µM and 63.5 µM | 41.1 µM | – | 95.7 ± 6.24 µM | -1.1 | – | – | – | 48 µM | 1.4 µM | 11.9 µM | 41.7 µM | 36.7 µM | 28 µM and 44.4 µM and 62.7 µM and 49.8 µM and 55.9 µM | 89.4 µM and 79.9 µM and 89.6 µM | IC50 ([1]; read-out: potency (IC50), Neural stem cell spheroid (24 h)): 1.21 µM; IC50 ([2]; read-out: IC50): 39.9 µM and 40 µM |
| CCOP(=S)(OCC)O/N=C(\C#N)c1ccccc1 [Phoxim] | 0.33 µM | 0.4 µM | -2.1 | 17.4 µM and 63.3 µM and 30.9 µM and 71 µM and 34.7 µM | 20.9 µM | – | 22 ± 4.1 µM | -1.1 | – | -2.2 and -2.1 | – | 23.4 µM | 0.67 µM | 3.18 µM | 13.3 µM | 12.9 µM | – | – | AC50 ([3]; activity_5): 27.3 µM and 24.3 µM; AC50 ([3]; activity_10): 30.6 µM and 24.3 µM; AC50 ([3]; activity_60): 21.7 µM and 19.3 µM and 24.3 µM |
| CN1CCc2cc(Cl)c(O)cc2[C@H]2c3ccccc3CC[C@@H]21 [Ecopipam, reference compound] | – | 3.16 µM | -2.2 | 27.5 µM and 34.7 µM | 15.8 µM | R | 32.7 ± 9.64 µM | 4 | 0 | -2.2 | -53.005 | 20.1 µM | 27.3 µM | 17.5 µM | – | 17.7 µM | 21.7 µM (2×) and 9.68 µM and 19.3 µM and 15.3 µM (2×) and 17.2 µM | 34.7 µM | – |
| CCOP(=S)(Oc1cnc(C(C)(C)C)nc1)OC(C)C (stereo not shown) [Tebupirimfos] | 2.08 µM | 3.7 µM | -2.1 | 39.9 µM and 35.6 µM | 20.1 µM | – | 42.8 ± 2.79 µM | -1.1 | -95.03 | -2.1 | -96.664 | 46.2 µM | 4.29 µM | 9.97 µM | 28.2 µM | 24.2 µM | 70.3 µM and 55.9 µM and 49.8 µM | – | IC50 ([6]; read-out: IC50): 63.3 µM; IC50 ([7]; IC50 (uM)): 10 µM |
| CS/C(C)=N\OC(=O)N(C)SN(C)C(=O)O/N=C(\C)SC [Thiodicarb] | 7.63 ± 1.05 µM | 7.8 ± 2.18 µM | -1.1 | 1.42 µM and 1.26 µM and 1.12 µM | 2.81 ± 0.32 µM | – | 3.97 ± 0.46 µM | -2.1 | -115.189 | -1.1 | -104.676 | 7.03 µM | 5.48 ± 1.36 µM | 5.43 ± 0.92 µM | 1.58 ± 0.57 µM | 2.62 ± 0.47 µM | 4.44 µM and 3.95 µM (2×) and 3.14 µM and 6.27 µM and 5.59 µM and 1.57 µM and 1.98 µM | – | – |
